Like-named read-outs stand apart in the source and are kept apart here.
Legend:
[1] = target: protein kinases (human kinome) (Homo sapiens, UniProt P04183); type: cell-based; conditions: TK1 (P04183); experiment wp168
[2] = target: protein kinases (human kinome) (Homo sapiens, UniProt P06239); type: cell-based; conditions: experiment wp168
[3] = target: protein kinases (human kinome) (Homo sapiens, UniProt P07947); type: cell-based; conditions: YES1 (P07947), experiment wp168
[4] = target: protein kinases (human kinome) (Homo sapiens, UniProt P11802); type: cell-based; conditions: experiment wp168
[5] = target: protein kinases (human kinome) (Homo sapiens, UniProt P12931); type: cell-based
[6] = target: protein kinases (human kinome) (Homo sapiens, UniProt P16591); type: cell-based
[7] = target: protein kinases (human kinome) (Homo sapiens, UniProt P35790); type: cell-based; conditions: CHKA P35790; experiment wp168
[8] = target: protein kinases (human kinome) (Homo sapiens, UniProt P41240); type: cell-based; conditions: experiment wp168
[9] = target: protein kinases (human kinome) (Homo sapiens, UniProt P45984); type: cell-based; conditions: MAPK9 P45984-1; experiment wp168
[10] = target: protein kinases (human kinome) (Homo sapiens, UniProt P49759); type: cell-based
[11] = target: protein kinases (human kinome) (Homo sapiens, UniProt P51451); type: cell-based
[12] = target: protein kinases (human kinome) (Homo sapiens, UniProt P53350); type: cell-based; conditions: PLK1 P53350; experiment wp168
[13] = target: protein kinases (human kinome) (Homo sapiens, UniProt P53667); type: cell-based; conditions: LIMK1 (P53667-1), experiment wp168
[14] = target: protein kinases (human kinome) (Homo sapiens, UniProt Q07912); type: cell-based
[15] = target: T1, protein kinases (human kinome) (Homo sapiens, UniProt Q8TAS1); type: cell-based; conditions: experiment wp168
T1 sequence (Q8TAS1 1-419): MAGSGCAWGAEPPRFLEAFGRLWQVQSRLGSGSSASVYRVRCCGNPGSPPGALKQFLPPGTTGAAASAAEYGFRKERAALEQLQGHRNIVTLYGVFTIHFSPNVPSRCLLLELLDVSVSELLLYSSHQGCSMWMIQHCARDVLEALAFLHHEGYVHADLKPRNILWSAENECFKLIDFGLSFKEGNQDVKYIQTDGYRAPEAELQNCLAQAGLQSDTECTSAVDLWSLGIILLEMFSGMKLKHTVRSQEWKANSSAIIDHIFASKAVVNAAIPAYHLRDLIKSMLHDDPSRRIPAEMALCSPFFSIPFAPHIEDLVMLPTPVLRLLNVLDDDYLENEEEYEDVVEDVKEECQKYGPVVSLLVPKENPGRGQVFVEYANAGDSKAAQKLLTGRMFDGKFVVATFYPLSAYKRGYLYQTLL

[16] = target: protein kinases (human kinome) (Homo sapiens, UniProt Q9H0K1); type: cell-based; conditions: experiment wp168
[17] = target: protein kinases (human kinome) (Homo sapiens, UniProt Q9HBH9); type: cell-based
[18] = tested on: protein kinases (human kinome); type: cell-based
[19] = target: extended human kinome (kinase-like proteins) (Homo sapiens, UniProt Q16875); test: Whole cell quantitative proteomics: extended kinome hits; conditions: Accession Q16875; experiment wp168
[20] = target: T2, protein kinases (human kinome) (Homo sapiens, UniProt O14965); type: cell-based
T2 sequence (O14965 1-403): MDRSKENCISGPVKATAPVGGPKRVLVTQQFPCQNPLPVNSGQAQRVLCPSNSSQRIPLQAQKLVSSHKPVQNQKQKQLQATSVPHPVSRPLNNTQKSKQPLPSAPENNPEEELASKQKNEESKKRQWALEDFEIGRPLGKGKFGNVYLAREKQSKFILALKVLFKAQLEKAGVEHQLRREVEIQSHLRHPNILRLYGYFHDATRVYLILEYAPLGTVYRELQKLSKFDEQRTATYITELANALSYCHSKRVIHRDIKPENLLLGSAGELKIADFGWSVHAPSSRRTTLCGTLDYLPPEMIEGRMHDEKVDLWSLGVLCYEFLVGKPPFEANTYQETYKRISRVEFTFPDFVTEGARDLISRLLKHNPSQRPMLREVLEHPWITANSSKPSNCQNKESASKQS

[21] = target: T3, protein kinases (human kinome) (Homo sapiens, UniProt P33981); type: cell-based; conditions: experiment wp164
T3 sequence (P33981 1-857): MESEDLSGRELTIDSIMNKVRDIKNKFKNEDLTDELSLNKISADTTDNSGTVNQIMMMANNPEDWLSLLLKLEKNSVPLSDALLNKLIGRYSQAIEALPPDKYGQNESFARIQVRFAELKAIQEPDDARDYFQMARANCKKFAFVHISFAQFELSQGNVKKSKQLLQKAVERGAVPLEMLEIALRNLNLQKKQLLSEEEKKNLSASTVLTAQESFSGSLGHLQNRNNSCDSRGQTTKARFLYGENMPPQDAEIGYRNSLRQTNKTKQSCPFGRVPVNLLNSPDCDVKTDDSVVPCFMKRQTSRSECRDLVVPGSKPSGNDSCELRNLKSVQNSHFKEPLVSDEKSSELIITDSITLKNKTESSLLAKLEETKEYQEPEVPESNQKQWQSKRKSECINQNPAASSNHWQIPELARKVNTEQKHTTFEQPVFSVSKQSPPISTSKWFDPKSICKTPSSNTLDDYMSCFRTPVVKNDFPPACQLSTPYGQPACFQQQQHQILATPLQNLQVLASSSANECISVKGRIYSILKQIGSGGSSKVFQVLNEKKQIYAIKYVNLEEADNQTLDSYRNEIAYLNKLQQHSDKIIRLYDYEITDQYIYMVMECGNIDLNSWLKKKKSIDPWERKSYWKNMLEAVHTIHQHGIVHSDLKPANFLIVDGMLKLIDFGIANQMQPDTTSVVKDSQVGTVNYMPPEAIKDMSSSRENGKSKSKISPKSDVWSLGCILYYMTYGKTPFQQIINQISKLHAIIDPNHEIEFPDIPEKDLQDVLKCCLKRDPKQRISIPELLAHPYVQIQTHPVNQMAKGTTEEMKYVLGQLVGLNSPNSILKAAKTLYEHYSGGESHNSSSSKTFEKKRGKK

[22] = target: protein kinases (human kinome) (Homo sapiens, UniProt P50750); type: cell-based; conditions: experiment wp164
[23] = target: protein kinases (human kinome) (Homo sapiens, UniProt Q00534); type: cell-based; conditions: for logFC CDK6: CDK6 (Q00534), direction down; for logFC of CDK6 (Q00534): down
[24] = target: protein kinases (human kinome) (Homo sapiens, UniProt Q2M2I8); type: cell-based
[25] = target: protein kinases (human kinome) (Homo sapiens, UniProt Q96GD4); type: cell-based; conditions: experiment wp164
[26] = target: protein kinases (human kinome) (Homo sapiens, UniProt Q9HBU6); type: cell-based; conditions: protein ETNK1 (Q9HBU6-1); experiment wp088; down
[27] = target: T4, protein kinases (human kinome) (Homo sapiens, UniProt Q9UEE5); type: cell-based; conditions: STK17A Q9UEE5; experiment wp088
T4 sequence (Q9UEE5 1-414): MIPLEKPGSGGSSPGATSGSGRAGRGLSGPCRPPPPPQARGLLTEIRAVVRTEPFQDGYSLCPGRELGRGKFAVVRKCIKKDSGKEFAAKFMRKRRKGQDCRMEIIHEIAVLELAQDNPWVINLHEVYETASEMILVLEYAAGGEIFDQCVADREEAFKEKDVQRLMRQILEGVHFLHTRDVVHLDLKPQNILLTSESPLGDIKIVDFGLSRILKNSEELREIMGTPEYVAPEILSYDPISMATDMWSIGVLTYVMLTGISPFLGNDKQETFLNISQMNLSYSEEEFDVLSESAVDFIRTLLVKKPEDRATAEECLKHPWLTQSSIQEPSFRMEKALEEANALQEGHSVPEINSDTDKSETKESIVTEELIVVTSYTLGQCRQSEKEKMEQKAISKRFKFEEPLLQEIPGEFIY

[28] = Experiment wp168, direction down
[29] = AURKB Q96GD4-5, experiment wp088

protein kinases (human kinome) (Homo sapiens, UniProt Q2M2I8), sequence (Q2M2I8 whole entry): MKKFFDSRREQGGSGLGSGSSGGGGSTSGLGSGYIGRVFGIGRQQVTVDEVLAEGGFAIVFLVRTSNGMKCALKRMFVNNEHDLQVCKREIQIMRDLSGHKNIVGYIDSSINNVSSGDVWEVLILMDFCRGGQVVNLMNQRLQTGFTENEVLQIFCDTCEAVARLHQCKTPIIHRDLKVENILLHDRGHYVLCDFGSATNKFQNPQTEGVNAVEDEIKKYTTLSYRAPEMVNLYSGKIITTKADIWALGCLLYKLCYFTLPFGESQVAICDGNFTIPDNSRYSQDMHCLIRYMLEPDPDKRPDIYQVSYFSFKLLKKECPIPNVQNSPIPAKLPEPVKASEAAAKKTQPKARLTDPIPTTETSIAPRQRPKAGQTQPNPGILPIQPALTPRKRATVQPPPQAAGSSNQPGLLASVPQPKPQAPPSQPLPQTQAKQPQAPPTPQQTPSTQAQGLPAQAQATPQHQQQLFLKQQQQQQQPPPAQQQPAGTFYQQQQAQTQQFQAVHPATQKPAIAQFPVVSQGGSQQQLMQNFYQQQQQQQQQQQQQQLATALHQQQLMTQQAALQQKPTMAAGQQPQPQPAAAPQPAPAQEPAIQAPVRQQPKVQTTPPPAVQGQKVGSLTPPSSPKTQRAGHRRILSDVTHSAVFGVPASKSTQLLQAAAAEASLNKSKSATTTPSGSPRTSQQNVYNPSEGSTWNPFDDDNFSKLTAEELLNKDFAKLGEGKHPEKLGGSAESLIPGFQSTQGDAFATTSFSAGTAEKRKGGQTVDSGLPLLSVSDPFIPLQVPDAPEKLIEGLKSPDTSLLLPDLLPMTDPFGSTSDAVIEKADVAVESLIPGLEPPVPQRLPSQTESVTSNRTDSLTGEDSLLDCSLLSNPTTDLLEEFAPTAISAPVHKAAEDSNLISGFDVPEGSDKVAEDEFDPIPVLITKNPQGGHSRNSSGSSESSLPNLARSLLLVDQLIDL
protein kinases (human kinome) (Homo sapiens, UniProt Q00534), sequence (Q00534 whole entry): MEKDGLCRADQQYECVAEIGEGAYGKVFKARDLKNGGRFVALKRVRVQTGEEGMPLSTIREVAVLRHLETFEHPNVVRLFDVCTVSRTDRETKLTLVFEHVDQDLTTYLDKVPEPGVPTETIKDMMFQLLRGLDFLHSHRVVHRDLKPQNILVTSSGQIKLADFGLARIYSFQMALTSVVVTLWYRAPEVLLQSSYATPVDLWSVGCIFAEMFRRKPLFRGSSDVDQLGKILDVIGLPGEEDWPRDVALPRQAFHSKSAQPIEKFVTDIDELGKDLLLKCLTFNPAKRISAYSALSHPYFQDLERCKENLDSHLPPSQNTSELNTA
protein kinases (human kinome) (Homo sapiens, UniProt Q9HBH9), sequence (Q9HBH9 whole entry): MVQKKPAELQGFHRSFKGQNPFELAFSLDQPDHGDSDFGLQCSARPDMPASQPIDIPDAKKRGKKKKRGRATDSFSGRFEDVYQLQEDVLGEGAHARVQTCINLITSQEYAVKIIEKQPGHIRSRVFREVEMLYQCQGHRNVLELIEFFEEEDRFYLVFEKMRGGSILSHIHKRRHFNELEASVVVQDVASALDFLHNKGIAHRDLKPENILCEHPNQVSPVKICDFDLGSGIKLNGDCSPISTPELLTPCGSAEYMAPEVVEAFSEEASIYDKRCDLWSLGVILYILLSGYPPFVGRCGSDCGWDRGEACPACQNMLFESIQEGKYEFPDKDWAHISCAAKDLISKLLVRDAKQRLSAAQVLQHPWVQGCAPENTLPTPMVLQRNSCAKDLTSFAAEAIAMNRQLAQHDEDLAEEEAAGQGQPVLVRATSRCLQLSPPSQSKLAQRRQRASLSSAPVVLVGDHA
protein kinases (human kinome) (Homo sapiens, UniProt Q07912), sequence (Q07912 whole entry): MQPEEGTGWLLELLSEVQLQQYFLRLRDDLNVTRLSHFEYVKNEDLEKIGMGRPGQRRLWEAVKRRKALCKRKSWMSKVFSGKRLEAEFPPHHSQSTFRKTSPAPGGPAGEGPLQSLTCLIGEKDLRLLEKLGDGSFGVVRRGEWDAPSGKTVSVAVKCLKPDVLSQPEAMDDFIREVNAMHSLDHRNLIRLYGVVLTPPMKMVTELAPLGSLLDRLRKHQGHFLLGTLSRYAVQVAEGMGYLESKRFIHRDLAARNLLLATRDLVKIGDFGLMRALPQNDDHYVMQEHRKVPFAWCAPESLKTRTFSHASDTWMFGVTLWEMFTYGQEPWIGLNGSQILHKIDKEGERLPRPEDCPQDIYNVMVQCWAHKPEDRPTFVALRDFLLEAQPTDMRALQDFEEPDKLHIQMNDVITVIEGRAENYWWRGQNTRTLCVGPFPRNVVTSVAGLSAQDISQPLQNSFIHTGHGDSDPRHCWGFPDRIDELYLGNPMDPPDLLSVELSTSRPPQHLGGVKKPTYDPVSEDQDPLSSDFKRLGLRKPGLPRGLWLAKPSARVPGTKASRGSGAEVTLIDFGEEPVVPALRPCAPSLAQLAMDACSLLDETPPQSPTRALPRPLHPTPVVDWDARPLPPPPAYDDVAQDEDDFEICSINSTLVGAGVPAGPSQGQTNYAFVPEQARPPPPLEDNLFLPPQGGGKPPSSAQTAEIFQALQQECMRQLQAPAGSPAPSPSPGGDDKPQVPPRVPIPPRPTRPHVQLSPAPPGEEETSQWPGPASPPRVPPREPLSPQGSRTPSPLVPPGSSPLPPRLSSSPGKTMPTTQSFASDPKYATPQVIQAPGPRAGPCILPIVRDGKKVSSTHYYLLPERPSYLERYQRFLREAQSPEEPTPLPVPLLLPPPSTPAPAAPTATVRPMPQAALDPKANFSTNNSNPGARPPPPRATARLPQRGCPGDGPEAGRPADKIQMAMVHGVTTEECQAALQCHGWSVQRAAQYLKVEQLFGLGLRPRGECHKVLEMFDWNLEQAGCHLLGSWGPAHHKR
protein kinases (human kinome) (Homo sapiens, UniProt P06239), sequence (P06239 whole entry): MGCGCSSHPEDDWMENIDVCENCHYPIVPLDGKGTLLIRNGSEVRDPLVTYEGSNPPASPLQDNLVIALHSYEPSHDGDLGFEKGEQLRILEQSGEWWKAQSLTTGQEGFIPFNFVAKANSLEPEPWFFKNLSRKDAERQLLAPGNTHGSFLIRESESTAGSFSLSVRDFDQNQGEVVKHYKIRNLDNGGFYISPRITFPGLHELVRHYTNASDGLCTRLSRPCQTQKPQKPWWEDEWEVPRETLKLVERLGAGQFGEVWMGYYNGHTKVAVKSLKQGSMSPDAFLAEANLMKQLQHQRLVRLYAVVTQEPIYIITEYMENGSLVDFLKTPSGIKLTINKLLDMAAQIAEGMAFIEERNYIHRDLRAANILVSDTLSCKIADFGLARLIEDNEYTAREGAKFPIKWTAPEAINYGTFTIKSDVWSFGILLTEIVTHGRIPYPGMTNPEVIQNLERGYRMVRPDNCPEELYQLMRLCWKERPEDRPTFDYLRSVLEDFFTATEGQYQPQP
protein kinases (human kinome) (Homo sapiens, UniProt P11802), sequence (P11802 whole entry): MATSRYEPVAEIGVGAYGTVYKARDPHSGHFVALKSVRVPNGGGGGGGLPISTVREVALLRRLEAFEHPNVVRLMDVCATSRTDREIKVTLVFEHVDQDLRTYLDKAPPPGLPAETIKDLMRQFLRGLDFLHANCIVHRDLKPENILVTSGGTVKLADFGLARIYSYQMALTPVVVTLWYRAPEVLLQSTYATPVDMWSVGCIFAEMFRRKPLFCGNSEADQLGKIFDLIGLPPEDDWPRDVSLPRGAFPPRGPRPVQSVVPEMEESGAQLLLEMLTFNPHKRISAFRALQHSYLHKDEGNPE
protein kinases (human kinome) (Homo sapiens, UniProt P45984), sequence (P45984 whole entry): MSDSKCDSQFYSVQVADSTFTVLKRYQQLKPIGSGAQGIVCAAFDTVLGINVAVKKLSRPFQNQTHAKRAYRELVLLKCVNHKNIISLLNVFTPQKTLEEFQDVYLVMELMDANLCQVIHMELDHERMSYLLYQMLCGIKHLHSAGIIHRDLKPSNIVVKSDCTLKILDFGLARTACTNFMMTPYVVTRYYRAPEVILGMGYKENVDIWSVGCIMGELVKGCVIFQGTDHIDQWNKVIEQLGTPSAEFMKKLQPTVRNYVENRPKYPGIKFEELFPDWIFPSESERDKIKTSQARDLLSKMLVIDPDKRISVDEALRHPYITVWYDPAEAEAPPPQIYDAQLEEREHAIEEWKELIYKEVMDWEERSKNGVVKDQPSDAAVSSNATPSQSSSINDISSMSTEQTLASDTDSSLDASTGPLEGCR
protein kinases (human kinome) (Homo sapiens, UniProt P49759), sequence (P49759 whole entry): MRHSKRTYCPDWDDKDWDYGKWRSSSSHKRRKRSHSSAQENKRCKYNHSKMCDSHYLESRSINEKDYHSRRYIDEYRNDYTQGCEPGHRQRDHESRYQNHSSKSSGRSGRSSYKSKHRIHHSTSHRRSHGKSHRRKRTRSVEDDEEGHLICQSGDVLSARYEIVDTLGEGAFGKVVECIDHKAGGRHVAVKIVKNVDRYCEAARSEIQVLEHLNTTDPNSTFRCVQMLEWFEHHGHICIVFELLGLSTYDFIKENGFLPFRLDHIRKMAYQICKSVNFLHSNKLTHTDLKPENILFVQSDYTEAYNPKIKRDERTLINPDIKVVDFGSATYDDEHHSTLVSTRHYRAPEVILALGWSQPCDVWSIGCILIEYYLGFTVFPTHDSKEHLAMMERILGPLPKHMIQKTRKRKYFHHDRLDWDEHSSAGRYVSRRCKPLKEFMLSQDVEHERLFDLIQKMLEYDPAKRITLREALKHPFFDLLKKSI
protein kinases (human kinome) (Homo sapiens, UniProt P41240), sequence (P41240 whole entry): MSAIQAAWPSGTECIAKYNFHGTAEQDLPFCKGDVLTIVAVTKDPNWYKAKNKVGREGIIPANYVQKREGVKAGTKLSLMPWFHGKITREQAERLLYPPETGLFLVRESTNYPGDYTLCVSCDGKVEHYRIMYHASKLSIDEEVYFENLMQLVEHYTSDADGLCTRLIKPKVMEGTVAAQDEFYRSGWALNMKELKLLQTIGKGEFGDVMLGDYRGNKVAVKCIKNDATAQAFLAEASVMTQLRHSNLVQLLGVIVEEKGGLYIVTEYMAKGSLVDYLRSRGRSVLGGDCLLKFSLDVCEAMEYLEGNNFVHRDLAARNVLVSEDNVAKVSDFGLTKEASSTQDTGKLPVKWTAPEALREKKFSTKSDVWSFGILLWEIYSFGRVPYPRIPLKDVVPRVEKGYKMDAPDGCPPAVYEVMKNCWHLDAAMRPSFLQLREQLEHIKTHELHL

Cc1ccc(NC(=O)c2cccc(C(F)(F)F)c2)cc1N1Cc2cnc(Nc3ccc(N4CCN(CCOc5cccc6c5C(=O)N(C5CCC(=O)NC5=O)C6=O)CC4)nc3)nc2N(C)C1=O (centres unmarked) [DB0661]
logFC [1]: −0.3523 | logFC LCK ([2]; LCK P06239-1): −0.4717 | logFC LCK ([2]; LCK, accession P06239-1, direction of change down): −0.4717 | logFC [3]: −0.5229 | logFC ([3]; direction down): −0.5229 | logFC CDK4 (P11802) [4]: −0.4978 | logFC of SRC ([5]; Accession P12931, experiment wp168): −0.6685 | logFC of SRC (P12931) ([5]; Experiment wp168): −0.6685 | logFC of FER (P16591-1) ([6]; Experiment wp168, down): −0.6143 | logFC of FER ([6]; FER P16591-1, experiment wp168): −0.6143 | logFC [7]: −0.3607 | logFC of CSK ([8]; Accession P41240): −1.526 | logFC CSK ([8]; CSK (P41240), down): −1.526 | logFC [9]: −1.961 | logFC MAPK9 [9]: −1.961 | logFC CLK1 ([10]; CLK1 P49759, experiment wp168): −0.3319 | logFC of CLK1 (P49759) ([10]; Experiment wp168): −0.3319 | logFC BLK ([11]; BLK (P51451), direction down, experiment wp168): −1.428 | logFC of BLK (P51451) ([11]; Experiment wp168, down): −1.428 | logFC [12]: −0.3453 | logFC PLK1 [12]: −0.3453 | logFC LIMK1 ([13]; direction down): −1.116 | logFC LIMK1 ([13]; down): −1.116 | logFC TNK2 (Q07912-1) [14, 28]: −0.3873 | logFC TNK2 ([14]; TNK2 (Q07912-1), experiment wp168): −0.3873 | logFC UHMK1 ([15]; Accession Q8TAS1, direction down): −0.416 | logFC UHMK1 ([15]; UHMK1 (Q8TAS1)): −0.416 | logFC of SIK2 ([16]; Accession Q9H0K1): −0.3628 | logFC SIK2 (Q9H0K1) ([16]; direction of change down): −0.3628 | logFC MKNK2 (Q9HBH9-1) [17, 28]: −0.5094 | logFC ([17]; MKNK2 (Q9HBH9-1), experiment wp168): −0.5094 | logFC MAPK8 (P45983-4) [18, 28]: −0.5033 | logFC MAPK8 ([18]; MAPK8 P45983-4, experiment wp168): −0.5033 | logFC ([18]; PTK2B (Q14289-2), experiment wp168, direction down): −1.935 | logFC PTK2B ([18]; PTK2B, accession Q14289-2, experiment wp168, direction of change down): −1.935 | kinases the bifunctional compound degrades ([18]; as stated for the structure in the embodiments): BLK, CDK4, CLK1, CSK, FER, LCK, LIMK1, MAPK8, MAPK9, MKNK2, PLK1, PTK2B, SIKA2, SRC, TNK2, UHMK1, and YES1 | Kinase hits ([18]; kinases significantly downregulated vs DMSO (fold change cutoff −1.25, P-value<0.01), ≤8 h, 0.1-5 μM degrader, 7 cell lines): BLK, CDK4, CLK1, CSK, FER, LCK, LIMK1, MAPK8, MAPK9, MKNK2, PLK1, PTK2B, SIKa2, SRC, TNK2, UHMK1, YES1 | Total no. kinase hits ([18]; number of degraded kinases per library compound): 17 | logFC PFKFB3 [19]: −0.4392

O=C(CCCCCCNC(=O)COc1cccc2c1C(=O)N(C1CCC(=O)NC1=O)C2=O)NCCOc1ccc(Nc2ncc3ccc(=O)n(C4CC5CCC4C5)c3n2)cc1 (centres unmarked) [SB1.G.194]
logFC AURKA (O14965) ([20]; experiment wp088): −1.175 | logFC AURKA (O14965) ([20]; experiment wp164): −2.035 | logFC TTK ([21]; Accession P33981): −0.4279 | logFC TTK (P33981) [21]: −0.4279 | logFC CDK9 (P50750) [22]: −0.8391 | logFC of CDK9 (P50750) [22]: −0.8391 | logFC CDK6 ([23]; experiment wp088): −0.4731 | logFC CDK6 ([23]; experiment wp164): −1.23 | logFC of CDK6 (Q00534) ([23]; Experiment wp088): −0.4731 | logFC of CDK6 (Q00534) ([23]; Experiment wp164): −1.23 | logFC AAK1 ([24]; AAK1 (Q2M218-1), experiment wp088, down): −0.3482 | logFC AAK1 ([24]; AAK1 (Q2M218-1), experiment wp164, down): −0.379 | logFC AAK1 ([24]; AAK1, accession Q2M218-1, experiment wp088, direction of change down): −0.3482 | logFC AAK1 ([24]; AAK1, accession Q2M218-1, experiment wp164, direction of change down): −0.379 | logFC AURKB ([25]; AURKB Q96GD4): −0.4883 | logFC of AURKB (Q96GD4) [25]: −0.4883 | logFC ETNK1 [26]: −0.3662 | logFC [27]: −0.6434 | logFC STK17A [27]: −0.6434 | logFC [18, 29]: −0.3846 | logFC AURKB [18, 29]: −0.3846 | logFC FGFR2 (P21802-11) ([18]; Experiment wp088, direction of change down): −0.4804 | logFC FGFR2 ([18]; protein FGFR2 (P21802-11), experiment wp088, down): −0.4804
